21 molecules from patent publication US20240199587A1, “HETEROCYCLIC COMPOUNDS” (Hoffmann-La Roche Inc., priority 2021, published 2024) can be followed below.

In general, IC50 refers to the concentration needed to halve the response being measured. A higher IC50 goes with weaker potency.

The target of this test is T1, MAGL (Homo sapiens, UniProt Q99685).
T1 sequence (Q99685 1-303): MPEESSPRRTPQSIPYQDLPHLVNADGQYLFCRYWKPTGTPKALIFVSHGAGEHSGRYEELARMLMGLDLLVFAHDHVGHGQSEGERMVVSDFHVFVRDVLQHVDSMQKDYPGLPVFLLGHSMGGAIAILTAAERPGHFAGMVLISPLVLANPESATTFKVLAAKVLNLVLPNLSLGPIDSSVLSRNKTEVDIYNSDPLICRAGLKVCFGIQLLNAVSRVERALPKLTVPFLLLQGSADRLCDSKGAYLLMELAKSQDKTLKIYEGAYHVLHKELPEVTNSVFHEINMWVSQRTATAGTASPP
Briefly: 2-AG assay (MAGL inhibitory activity, hydrolysis of 2-arachidonoylglycerol to arachidonic acid followed by mass spectrometry). The format is biochemical. To be noted: 8 μM 2-arachidonoylglycerol, 15 min pre-incubation, 30 min incubation at RT, RapidFire MS readout. The method, boiled down: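 Arachidonic acid released from 8 μM 2-arachidonoylglycerol was quantified by online SPE triple-quadrupole MS (negative ESI, 303.1→259.1), normalised to d8-arachidonic acid internal standard. Reaction ran 30 min at RT after 15 min RT compound pre-incubation with […] MAGL in TRIS/EDTA/Tween-20 buffer, 2.5% DMSO.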
In turn, `CS(=O)(=O)c1cc(F)ccc1OC1CCC2(CC1)CN(C(=O)N1CC3(CC(n4cnc(C5CC5)n4)C3)C1)C2` [Example 238, [6-(3-cyclopropyl-1,2,4-triazol-1-yl)-2-azaspiro[3.3]heptan-2-yl]-[7-(4-fluoro-2-mesyl-phenoxy)-2-azaspiro[3.5]nonan-2-yl]methanone] gave an IC50 of 0.0065 µM.
`CC(C)(C)CS(=O)(=O)N1CC2(CN(C(=O)N3CC4(CC(n5cnc(C6CC6)n5)C4)C3)C2)C1` [Example 239] yielded an IC50 of 0.0066 µM.
In turn, `N#Cc1ccccc1S(=O)(=O)N1CC2(CN(C(=O)N3CC4(CC(n5cnc(C6CC6)n5)C4)C3)C2)C1` [Example 240] came in with an IC50 of 0.0068 µM.
To `Cc1ccc(OC2CN(C(=O)N3CC4(CC(n5cnc(C6CC6)n5)C4)C3)C2)c(F)c1` [Example 241, (6-(3-cyclopropyl-1H-1,2,4-triazol-1-yl)-2-azaspiro[3.3]heptan-2-yl)(3-(2-fluoro-4-methylphenoxy)azetidin-1-yl)methanone] belongs 0.0087 µM; to `O=C(N1CC2(CC(n3cnc(C4CC4)n3)C2)C1)N1CC2(C1)CN(S(=O)(=O)c1c(F)cc(F)cc1F)C2` [Example 242, [6-(3-cyclopropyl-1,2,4-triazol-1-yl)-2-azaspiro[3.3]heptan-2-yl]-[2-(2,4,6-trifluorophenyl)sulfonyl-2,6-diazaspiro[3.3]heptan-6-yl]methanone], 0.0088 µM.
`O=C(N1CC2(CC(n3cnc(C4CC4)n3)C2)C1)N1CC2(C1)CN(S(=O)(=O)c1cccnc1Cl)C2` [Example 243, [2-[(2-chloro-3-pyridyl)sulfonyl]-2,6-diazaspiro[3.3]heptan-6-yl]-[6-(3-cyclopropyl-1,2,4-triazol-1-yl)-2-azaspiro[3.3]heptan-2-yl]methanone] registered an IC50 of 0.0088 µM.
Then `O=C(N1CC2(CC(n3cnc(C4CC4)n3)C2)C1)N1CC2(C1)CN(S(=O)(=O)CC1CCCCC1)C2` [Example 244, [2-(cyclohexylmethylsulfonyl)-2,6-diazaspiro[3.3]heptan-6-yl]-[6-(3-cyclopropyl-1,2,4-triazol-1-yl)-2-azaspiro[3.3]heptan-2-yl]methanone], with 0.009 µM; and `COc1cccc(S(=O)(=O)N2CC3(CN(C(=O)N4CC5(CC(n6cnc(C7CC7)n6)C5)C4)C3)C2)c1` [Example 245, [6-(3-cyclopropyl-1,2,4-triazol-1-yl)-2-azaspiro[3.3]heptan-2-yl]-[2-(3-methoxyphenyl)sulfonyl-2,6-diazaspiro[3.3]heptan-6-yl]methanone], with 0.0099 µM; and `O=C(N1CC(CNS(=O)(=O)c2cccc(C(F)(F)F)c2)C1)N1CC2(CC(n3cnc(C4CC4)n3)C2)C1` [Example 246, N-[[1-[6-(3-cyclopropyl-1,2,4-triazol-1-yl)-2-azaspiro[3.3]heptane-2-carbonyl]azetidin-3-yl]methyl]-3-(trifluoromethyl)benzenesul fonamide], with 0.0122 µM.
The molecule `O=C(N1CC2(CC(n3cnc(C4CC4)n3)C2)C1)N1CC2(C1)CN(S(=O)(=O)NCC1(C(F)(F)F)CC1)C2` [Example 247, 6-[6-(3-cyclopropyl-1,2,4-triazol-1-yl)-2-azaspiro[3.3]heptane-2-carbonyl]-N-[[1-(trifluoromethyl)cyclopropyl]methyl]-2,6-diazaspiro[3.3]heptane-2-sulfonamide] came in with a concentration for half-maximal inhibition (IC50) of 0.0122 µM.
As for `O=C(N1CC(Oc2ccc(C(F)(F)F)nn2)C1)N1CC2(CC(n3cnc(C4CC4)n3)C2)C1` [Example 248, [6-(3-cyclopropyl-1,2,4-triazol-1-yl)-2-azaspiro[3.3]heptan-2-yl]−[3-[6-(trifluoromethyl)pyridazin-3-yl]oxyazetidin-1-yl]methanone], the IC50 came out at 0.0134 µM.
`CC(Oc1cnn(C2CN(C(=O)N3CC4(CC(n5cnc(C6CC6)n5)C4)C3)C2)c1)C(F)(F)F` (stereo not drawn) [Example 249, [6-(3-cyclopropyl-1,2,4-triazol-1-yl)-2-azaspiro[3.3]heptan-2-yl]-[3-[4-(2,2,2-trifluoro-1-methyl-ethoxy)pyrazol-1-yl]azetidin-1-yl]methanone] had an IC50 of 0.0144 µM.
Take `O=C(N1CC2(CC(n3cnc(C4CC4)n3)C2)C1)N1CC2(C1)CN(S(=O)(=O)c1cccc3nonc13)C2` [Example 250, [2-(2,1,3-benzoxadiazol-4-ylsulfonyl)-2,6-diazaspiro[3.3]heptan-6-yl]-[6-(3-cyclopropyl-1,2,4-triazol-1-yl)-2-azaspiro[3.3]heptan-2-yl]methanone]: the IC50 came out at 0.0151 µM.
`COc1ccccc1S(=O)(=O)N1CC2(CN(C(=O)N3CC4(CC(n5cnc(C6CC6)n5)C4)C3)C2)C1` [Example 251, [6-(3-cyclopropyl-1,2,4-triazol-1-yl)-2-azaspiro[3.3]heptan-2-yl]-[2-(2-methoxyphenyl)sulfonyl-2,6-diazaspiro[3.3]heptan-6-yl]methanone] returned an IC50 of 0.0155 µM.
`O=C(N1CC(c2ccc(C3(c4nnn[nH]4)CC3)cc2)C1)N1CC2(CC(n3cnc(C4CC4)n3)C2)C1` [Example 252, [6-(3-cyclopropyl-1,2,4-triazol-1-yl)-2-azaspiro[3.3]heptan-2-yl]-[3-[4-[1-(1H-tetrazol-5-yl)cyclopropyl]phenyl]azetidin-1-yl]methanone] gave a half-inhibitory concentration (IC50) of 0.0161 µM.
As to `O=C(N1CCC(CNS(=O)(=O)c2ccc(C(F)(F)F)cc2)CC1)N1CC2(CC(n3cnc(C4CC4)n3)C2)C1` [Example 253], the IC50 was 0.0162 µM.
Consider `O=C(N1CC(Oc2cnc(Cl)c(C3CC3)c2)C1)N1CC2(CC(n3cnc(C4CC4)n3)C2)C1` [Example 254, [3-[(6-chloro-5-cyclopropyl-3-pyridyl)oxy]azetidin-1-yl]-[6-(3-cyclopropyl-1,2,4-triazol-1-yl)-2-azaspiro[3.3]heptan-2-yl]methanone], for which the IC50 is 0.017 µM.
The molecule `O=C(N1CC2(CC(n3cnc(C4CC4)n3)C2)C1)N1CC2(C1)CN(S(=O)(=O)c1ccc(C(F)(F)F)nc1)C2` [Example 255, [6-(3-cyclopropyl-1,2,4-triazol-1-yl)-2-azaspiro[3.3]heptan-2-yl]-[2-[[6-(trifluoromethyl)-3-pyridyl]sulfonyl]-2,6-diazaspiro[3.3]heptan-6-yl]methanone] yielded a half-inhibitory concentration (IC50) of 0.0172 µM.
The molecule `O=C(N1CC2(CC(n3cnc(C4CC4)n3)C2)C1)N1CC2(C1)CN(S(=O)(=O)NCc1ccc(F)cc1)C2` [Example 256, 6-[6-(3-cyclopropyl-1,2,4-triazol-1-yl)-2-azaspiro[3.3]heptane-2-carbonyl]-N-[(4-fluorophenyl)methyl]-2,6-diazaspiro[3.3]heptane-2-sulfonamide] showed an IC50 of 0.0173 µM.
To `NS(=O)(=O)c1ccccc1CN1CC2(C1)CN(C(=O)N1CC3(CC(n4cnc(C5CC5)n4)C3)C1)C2` [Example 257, 2-[[2-[6-(3-cyclopropyl-1,2,4-triazol-1-yl)-2-azaspiro[3.3]heptane-2-carbonyl]-2,6-diazaspiro[3.3]heptan-6-yl]methyl] benzenesulfonamide] belongs 0.018 µM; to `O=C(N1CC2(CC(n3cnc(C4CC4)n3)C2)C1)N1CC2(CN(Cc3ncc(F)cc3F)C2)C1` [Example 258, [6-(3-cyclopropyl-1,2,4-triazol-1-yl)-2-azaspiro[3.3]heptan-2-yl]-[6-[(3,5-difluoro-2-pyridyl)methyl]-2,6-diazaspiro[3.3]heptan-2-yl]methanone], 0.0194 µM.
